In ChEMBL document CHEMBL1201862, “PubChem BioAssay data set” (2004):
Where “and” joins values, the source holds several entries; their conditions need not be identical. Identical values can stand only once. Counter-ions that a name gives are not always drawn.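 Test compounds were applied to cells in 96-well plates for 48 hours at 5 doses. GI50: concentration for 50% inhibition of growth.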 Calls of active or inactive are those of the source. No stated cut-off is given here; in the data, active = GI50 up to about 1.1 µM and inactive = higher.

Columns and labels:
Assay in all cases: NCI tumour cell line growth inhibition, 48 h
[1] = system: 786-0
[2] = system: A498
[3] = system: A549
[4] = system: ACHN
[5] = system: CAKI-1
[6] = system: CCRF-CEM
[7] = system: COLO 205
[8] = system: DLD-1
[9] = system: DMS-114
[10] = system: DMS-273
[11] = system: EKVX
[12] = system: HCC 2998
[13] = system: HCT-116
[14] = system: HCT-15
[15] = system: HL-60
[16] = system: HOP-62
[17] = system: HOP-92
[18] = system: HT-29
[19] = system: IGROV-1
[20] = system: K562
[21] = system: KM-20L2
[22] = system: KM12
[23] = system: LOX IMVI
[24] = system: LXFL 529
[25] = system: M14
[26] = system: M19-MEL
[27] = system: MOLT-4
[28] = system: Malme-3M
[29] = system: NCI-H226
[30] = system: NCI-H23
[31] = system: NCI-H460
[32] = system: NCI-H522
[33] = system: OVCAR-3
[34] = system: OVCAR-4
[35] = system: OVCAR-5
[36] = system: OVCAR-8
[37] = system: RPMI-8226
[38] = system: RXF 393
[39] = system: SF-268
[40] = system: SF-295
[41] = system: SF-539
[42] = system: SK-MEL-28
[43] = system: SK-MEL-2
[44] = system: SK-MEL-5
[45] = system: SK-OV-3
[46] = system: SN12C
[47] = system: SNB-19
[48] = system: SNB-75
[49] = system: SNB-78
[50] = system: SW-620
[51] = system: TK-10
[52] = system: U-251
[53] = system: UACC-257
[54] = system: UACC-62
[55] = system: UO-31
[56] = system: XF498
[57] = system: BT-549
[58] = system: DU-145
[59] = system: Hs-578T
[60] = system: MCF7
[61] = system: MDA-MB-231
[62] = system: MDA-MB-435
[63] = system: MDA-N
[64] = system: NCI/ADR-RES
[65] = system: PC-3
[66] = system: SR
[67] = system: T47D

Compound: CCN(CCCl)CCCCCNc1c2ccccc2nc2ccc(OC)cc12
- GI50 [1]: 345 nM (active)
- GI50 [2]: 1260 nM (inactive)
- GI50 [3]: 373 nM (active)
- GI50 [4]: 470 nM (active)
- GI50 [5]: 2840 nM (inactive)
- GI50 [6]: 85.7 nM (active)
- GI50 [7]: 1.1 µM (active)
- GI50 [8]: 350 nM (active)
- GI50 [9]: 334 nM (active)
- GI50 [10]: 184 nM (active)
- GI50 [11]: 3.79 µM (inactive)
- GI50 [12]: 1040 nM (active)
- GI50 [13]: 221 nM (active)
- GI50 [14]: 1300 nM
- GI50 [15]: 41.1 nM (active)
- GI50 [16]: 2140 nM (inactive)
- GI50 [17]: 436 nM (active)
- GI50 [18]: 259 nM (active)
- GI50 [19]: 578 nM (active)
- GI50 [20]: 149 nM (active)
- GI50 [21]: 655 nM (active)
- GI50 [22]: 454 nM (active)
- GI50 [23]: 178 nM (active)
- GI50 [24]: 444 nM (active)
- GI50 [25]: 2150 nM (inactive)
- GI50 [26]: 476 nM (active)
- GI50 [27]: 15.5 nM (active)
- GI50 [28]: 2.04 µM (inactive)
- GI50 [29]: 321 nM (active)
- GI50 [30]: 356 nM (active)
- GI50 [31]: 70 nM (active)
- GI50 [32]: 628 nM (active)
- GI50 [33]: 1830 nM (inactive)
- GI50 [34]: 1010 nM (active)
- GI50 [35]: 1550 nM (inactive)
- GI50 [36]: 533 nM (active)
- GI50 [37]: 115 nM (active)
- GI50 [38]: 1.07 µM (active)
- GI50 [39]: 597 nM (active)
- GI50 [40]: 1.47 µM (inactive)
- GI50 [41]: 1.04 µM (active)
- GI50 [42]: 2.72 µM (inactive)
- GI50 [43]: 1090 nM (active)
- GI50 [44]: 1100 nM (active)
- GI50 [45]: 1.47 µM (inactive)
- GI50 [46]: 232 nM (active)
- GI50 [47]: 1.16 µM (inactive)
- GI50 [48]: 942 nM (active)
- GI50 [49]: 736 nM (active)
- GI50 [50]: 154 nM (active)
- GI50 [51]: 7.66 µM (inactive)
- GI50 [52]: 603 nM (active)
- GI50 [53]: 3.22 µM (inactive)
- GI50 [54]: 402 nM (active)
- GI50 [55]: 2.88 µM (inactive)
- GI50 [56]: 251 nM (active)

Compound: CN(C)CCCN1c2ccccc2Sc2ccc(C(F)(F)F)cc21 [TRIFLUPROMAZINE HYDROCHLORIDE]
- GI50 [1]: 14.7 µM (inactive) and 14.1 µM (inactive)
- GI50 [2]: 16600 nM (inactive)
- GI50 [3]: 17 µM (inactive) and 16.9 µM (inactive)
- GI50 [4]: 14.9 µM (inactive) and 15.4 µM (inactive)
- GI50 [57]: 12800 nM (inactive)
- GI50 [5]: 11800 nM (inactive)
- GI50 [6]: 20.3 µM (inactive) and 16.1 µM (inactive)
- GI50 [7]: 16.3 µM (inactive) and 16.7 µM (inactive)
- GI50 [8]: 17200 nM (inactive)
- GI50 [9]: 18200 nM (inactive)
- GI50 [10]: 14700 nM (inactive)
- GI50 [58]: 17200 nM (inactive)
- GI50 [11]: 17.6 µM (inactive) and 15.7 µM (inactive)
- GI50 [13]: 14.2 µM (inactive) and 14.4 µM (inactive)
- GI50 [14]: 17100 nM and 16100 nM
- GI50 [15]: 15.7 µM (inactive) and 12.7 µM (inactive)
- GI50 [17]: 12300 nM (inactive)
- GI50 [18]: 11400 nM (inactive)
- GI50 [59]: 14100 nM (inactive)
- GI50 [19]: 15.9 µM (inactive) and 15.6 µM (inactive)
- GI50 [20]: > 10 µM (inactive) and 13.8 µM (inactive)
- GI50 [21]: 11300 nM (inactive)
- GI50 [22]: 17.2 µM (inactive) and 15.1 µM (inactive)
- GI50 [23]: 15.5 µM (inactive) and 13.9 µM (inactive)
- GI50 [24]: 60000 nM (inactive)
- GI50 [26]: 17500 nM (inactive)
- GI50 [60]: 16100 nM (inactive)
- GI50 [61]: 12900 nM (inactive)
- GI50 [62]: 15800 nM (inactive)
- GI50 [63]: 13400 nM (inactive)
- GI50 [27]: 17700 nM (inactive)
- GI50 [28]: 16.4 µM (inactive) and 14.9 µM (inactive)
- GI50 [30]: 18.3 µM (inactive) and 16.5 µM (inactive)
- GI50 [31]: 16.4 µM (inactive) and 15 µM (inactive)
- GI50 [32]: 17.9 µM (inactive) and 18.1 µM (inactive)
- GI50 [64]: 17200 nM (inactive)
- GI50 [34]: 14800 nM (inactive)
- GI50 [35]: 17100 nM (inactive)
- GI50 [36]: 15600 nM (inactive)
- GI50 [65]: 15200 nM (inactive)
- GI50 [37]: 21.2 µM (inactive) and 14.9 µM (inactive)
- GI50 [38]: 13 µM (inactive) and 16 µM (inactive)
- GI50 [39]: 14 µM (inactive) and 15 µM (inactive)
- GI50 [40]: 15.3 µM (inactive) and 16.8 µM (inactive)
- GI50 [41]: 15.2 µM (inactive) and 19.1 µM (inactive)
- GI50 [42]: 16.3 µM (inactive) and 14.8 µM (inactive)
- GI50 [43]: 16000 nM (inactive)
- GI50 [44]: 17400 nM (inactive)
- GI50 [45]: 18.6 µM (inactive) and 16.6 µM (inactive)
- GI50 [46]: 16 µM (inactive) and 17.3 µM (inactive)
- GI50 [47]: 16.6 µM (inactive) and 15 µM (inactive)
- GI50 [48]: 12.1 µM (inactive) and 12.2 µM (inactive)
- GI50 [49]: 15700 nM (inactive)
- GI50 [66]: 18.1 µM (inactive) and 17.6 µM (inactive)
- GI50 [50]: 15.8 µM (inactive) and 17.2 µM (inactive)
- GI50 [67]: 14600 nM (inactive)
- GI50 [51]: 17.4 µM (inactive) and 15.2 µM (inactive)
- GI50 [52]: 14.2 µM (inactive) and 15.7 µM (inactive)
- GI50 [53]: 13.5 µM (inactive) and 15.3 µM (inactive)
- GI50 [54]: 16.6 µM (inactive) and 16.8 µM (inactive)
- GI50 [55]: 15.5 µM (inactive) and 14.3 µM (inactive)
